Data reported in patent US20210113482A1, “Poly (Alkyl Cyanoacrylate) Nanoparticles for Use in Treatment of Cancer” (Sintef TTO AS, priority 2018, published 2021).
Like-named read-outs stand apart in the source and are kept apart here.

Experiments:
[1] = tested on: MAS98.12 patient derived xenograft (PDX) breast tumor, basal-like; assay: Treatment efficacy in mice bearing MAS98.12 patient derived xenograft; type: in vivo
Protocol: (§1) Treatment efficacy evaluation in nude mice.
(§2) The ortothopically growing basal-like xenograft model MAS98.12 has been established in house and was used as previously described in Lindholm et al (2012). When using the MDA-MB-231 cell line, 1.5 million cells were injected into the mammary fat pad and growing tumors were used for sequential implantation. As for the MAS98.12 model, 1-2 mm^3 pieces of healthy tumor tissue were implanted bilaterally into the mammary fat pad of female athymic mice. After the tumors reached approximately 5 mm in diameter, the mice were randomly assigned to the different treatment groups (the average volume of each group was 49-57 mm^3).
Statistical analyses. To calculate the significance in the efficacy studies, the area under the curve was calculated for each tumor and the mean values of the groups were compared using the Welch unequal variance. To determine whether there is a significant difference between the frequencies of the tumor regression in the different treatment groups, we used the Fischer's exact test. If not stated otherwise, an unpaired two-sided Student t-test without Welch correction was used. The statistical analyses were performed using either GraphPad Prism (version 7.00 for Windows, GraphPad Software, La Jolla, Calif., US) or Microsoft Excel.

[2] = tested on: MDA-MB-231 tumors; assay: Treatment efficacy in mice bearing MDA-MB-231 tumors; type: in vivo; details: 2×15 mg CBZ/kg i.v.
Protocol: as §1, §2

[3] = Pharmacokinetics in blood: CBZ in plasma by LC-MS/MS in MAS98.12 bearing mice; type: in vivo; details: female, athymic nude foxn1nu, mouse, iv, 15 mg/kg, 15 mg/kg i.v.
Protocol: (§3) CBZ quantification by LC-MS/MS. CBZ, as the pure chemical or part of NPs, was quantified by LC-MS/MS, using an Agilent 1290 HPLC system coupled to an Agilent 6490 triple quadrupole mass spectrometer. The HPLC column was an Ascentis Express C8, 75×2.1 mm, 2.7 μm particles size with a 5×2.1 mm guard column of the same material (Sigma), run at 40° C. Eluent A was 25 mM formic acid in water and eluent B was 100% methanol, and flow rate was 0.5 ml/min. The mobile phase gradient was isocratic at 55% B for 1.5 min, then from 55% to 80% B over 1 min, followed by 1 min washout time and subsequently column re-equilibration. Injection volume was 5.00 μl. MS detection was in positive ESI mode (Agilent Jetstream) quantified in multiple reaction monitoring (MRM) mode using the transition m/z 858.3→577.2. The parent ion was chosen to be the Na adduct as this gave the best sensitivity. Similarly, the hexadeuterated internal standard was detected on the 864.4→583.2 transition. Both analytes were run at 380 V fragmentor and 20 V collision energy.
Processing of tissue samples before LC-MS/MS analyses. In order to process the tissue samples such that their CBZ content could be quantified, we developed a protocol for enzymatic digestion of tissue followed by extraction and quantification of CBZ using the LC-MS/MS method described above. […]

[4] = Biodistribution: CBZ in tumor and organs by LC-MS/MS in MAS98.12 bearing mice; type: in vivo; details: 15 mg/kg i.v.
Protocol: as §3
Processing of tissue samples before LC-MS/MS analyses. In order to process the tissue samples such that their CBZ content could be quantified, we developed a protocol for enzymatic digestion of tissue followed by extraction and quantification of CBZ using the LC-MS/MS method described above. The enzyme buffer consisted of Dulbecco's Modified Eagle Medium (DMEM, Thermo Fisher Scientific, USA, 41965039) with 1% (v/v) penicillin-streptomycin stock solution (Sigma-Aldrich, P0781) to a final concentration of 100 U/ml penicillin and 100 μg/ml streptomycin, 0.125 mg/ml papain (Merck, F275644), 2.5 mg/ml trypsin (Sigma-Aldrich, T7409), 0.8 mg/ml collagenase (Sigma-Aldrich, C7926), 0.69 mg/ml hyaluronidase (Sigma-Aldrich, H3506) and 1% (v/v) Triton X-100 (Sigma-Aldrich, T-8787). To determine the biodistribution of CBZ, frozen organs (liver, spleen, lymph nodes, kidneys, tumors) were thawed and freshly prepared enzyme buffer was added at 1 ml per 50 mg tissue; the entire organs were digested. The samples were heated to 37° C. for 72 h with vortexing once a day, until the tissue was completely dissolved. The tissue digests, as well as the plasma samples from the animals, were diluted 10× in acetone before centrifugation; this has the dual effect of both precipitating proteins and other macromolecules, thus cleaning up the sample, and making sure all CBZ is solubilized. Internal standard (hexadeuterated CBZ) dissolved in acetone was added to a final concentration of 10 ng/ml during the acetone dilution to correct for possible matrix effects.
Biodistribution and pharmacokinetics in blood. Blood and tissue samples were obtained following a single i.v. injection of PEBCA-CBZ and non-encapsulated CBZ (15 mg/kg) into the tail vein of mice bearing the MAS98.12 tumor (n=3). Empty particles (PEBCA) and saline were used as negative controls. The blood samples were taken either per tail vein puncture (approximately after 2 min and thereafter at 1, 4 and 24 h after injection) or by terminal cardiac puncture (96 h after injection) in Vacutainer tubes containing EDTA (BD Biosciences, San Jose, Calif., USA) and kept on ice. The 0-24 h samples were collected consecutively from the same animals (n=3) while samples after 96 h were obtained from separate mice (n=3). The blood was centrifuged for 15 min at 4° C. and 3400×g, and the supernatant plasma was collected and stored at −80° C. until LC-MS/MS analysis. […]

[5] = tested on: CD68 (whole macrophage population); assay: Macrophage infiltration in treated MAS98.12 tumors, immunohistochemistry with anti-CD68; type: in vivo, mice; details: 96 h after single injection; compared to free CBZ or saline; not statistically significant
Protocol: (§4) Immunohistochemistry. Tumors from MAS98.12 bearing mice were collected 96 h after a single injection of the same substances as were injected in the MAS98.12 efficacy study. The tumors were preserved in 4% (v/v) formalin and then paraffinized and sliced to prepare consecutive slides (3 μm thick). The deparaffinization agent Neo-clear and mounting agent Neo-mount were obtained from VWR (Radnor, Pa., USA). Heat induced epitope retrieval was performed by placing deparaffinized slides with 10 mM sodium citrate buffer (pH 6.0) in water bath for 20 min at 100° C. Endogenous peroxidase activity was blocked by incubating slides with 3% (v/v) hydrogen peroxide in Tris-buffered saline (TBS; 50 mM Tris-Cl, 150 mM NaCl, pH 7.6). Sections were washed and blocking of non-specific binding was performed with 3% (w/v) bovine serum albumin (Roche diagnostics GmbH, Mannheim, Germany) in TBS for 30 min. Sections were then incubated for 60 min with the primary antibodies. […]
(§5) Stained tissue sections were scanned (NanoZoomer HT, Hamamatsu Photonics, Hamamatsu, Japan) using a 40× objective. The extent of CD68, iNOS and CD206 was automatically scored using the ImmunoPath software (Room4 Ltd., Crowborough, UK). […] The annotated representative areas were analyzed further by computerized image analysis. […]

[6] = tested on: iNOS (M1, anti-tumorigenic pro-inflammatory macrophages); assay: Macrophage infiltration in treated MAS98.12 tumors, immunohistochemistry with anti-iNOS; type: in vivo, mice; details: 96 h after single injection
Protocol: as §4, §5

[7] = tested on: CD206 (M2, pro-tumorigenic anti-inflammatory macrophages); assay: Macrophage infiltration in treated MAS98.12 tumors, immunohistochemistry with anti-CD206; type: in vivo, mice; details: 96 h after single injection
Protocol: as §4, §5

[8] = tested on: MDA-MB-231, MDA-MB-468 and MCF-7 cells; assay: In vitro cellular toxicity: MTT cell viability (72 h) and [3H]thymidine incorporation (24 h) in three breast cancer cell lines; type: cell-based, human; details: MTT assay, 72 h incubation, all cell lines
Protocol: Cell lines. Three breast cancer cell lines were used in this study. The MDA-MB-231 (triple negative; Claudin low), was cultured in RPMI 1640; the MDA-MB-468 (triple negative; basal) and the MCF-7 (luminal A) cell lines were cultured in DMEM. All medium was fortified with 10% (w/v) fetal calf serum albumin (Sigma) and 100 units/ml penicillin/streptomycin (PenStrep®, Sigma). All cell lines were obtained from ATCC and were routinely tested for mycoplasma. Cells growing in 24- or 96-well plates were incubated with serial dilutions of PEBCA-CBZ, CBZ (non-encapsulated CBZ) dissolved in Tween-80 (Fluka)), and PEBCA without CBZ for 24, 48 or 72 h at 37° C. in an atmosphere of 5% CO2. The toxicity was assessed either by the commonly used MTT (3-(4,5-dimethylthiazol-2-yl)-2,5-diphenyltetrazolium bromide) cell viability assay, by measuring cell proliferation based on [^3H]thymidine incorporation, by measuring protein synthesis by incorporation of [^3H]leucine and by measuring ATP levels using CellTiter Glo®.
MTT cell viability assay. […] The absorbance was read in a plate reader (Biosys Ltd, Essex, UK) at 570 nm, and background from absorbance at 650 nm was subtracted.
Cell proliferation measured by [^3H]thymidine incorporation. […] The radioactivity was counted for 1 min in a scintillation counter (Tri-Carb 2100TR, Packard Bioscience, USA).

Structure (SMILES): CO[C@H]1C(=O)[C@]2(C)[C@@H](OC)C[C@H]3OC[C@@]3(OC(C)=O)[C@H]2[C@H](OC(=O)c2ccccc2)[C@]2(O)C[C@H](OC(=O)[C@H](O)[C@@H](NC(=O)OC(C)(C)C)c3ccccc3)C(C)=C1C2(C)C [CBZ, cabazitaxel]
- Tumor growth ([1]; 2×15 mg CBZ/kg i.v. (particle dose 2×175 mg/kg), day 33 and 36): markedly inhibited tumor growth
- tumors in complete remission ([1]; 2×15 mg CBZ/kg i.v., non-palpable tumors at day 57 after implantation): 2 out of 9
- Tumor growth [2]: a delay in tumor growth was observed
- efficacy compared to MAS98.12 [2]: less effective
- half-life ([3]; from mean values of the two last time points (24 and 96 h), read-out: elimination half-life (converted)): ~60 h
- half-life ([3]; interpolation of the two first data points (up to 1 hr), read-out: distribution half-life): ~0.5 h
- change of CBZ concentration in tissue from 24 to 96 h [4]: significantly lower in tumors after 96 h
- CBZ level in tumor relative to the PEBCA-CBZ group ([4]; 24 h): about ⅓
- tissue with the highest CBZ amount ([4]; 24 h): the tumor
- tissues in which CBZ could be detected (above LOQ) ([4]; 96 h): only in the tumor tissue
- CBZ concentration in tumors relative to that after PEBCA-CBZ ([4]; 96 h, difference not significant (p=0.18)): approximately 50%
- total tumor infiltrating macrophages (CD68) [5]: no response in the macrophage populations
- pro-inflammatory M1 macrophages (iNOS) in tumors [6]: no response in the macrophage populations
- anti-inflammatory M2 macrophages (CD206 positive cells) in tumors [7]: no response in the macrophage populations
- fraction of the cells surviving even very high CBZ concentrations [8]: 10-20%
